Results published in patent US20260176320A1, “MODULATORS OF G-PROTEIN COUPLED RECEPTORS” (priority 2018, published 2026).
Like-named read-outs stand apart in the source and are kept apart here. Numbered stars: 1 amine (or outer) side, 2 acyl side, 3 side chain; on linkers, the order of the positions; unused ones are H or OH. Square brackets hold non-standard residues; d marks the D form. Side chains are listed from the residue outwards. Peptide text beside a SMILES is read from it. * marks the point of attachment. γGlu = O=C(O)[C@H](CCC(=O)[*:2])N[*:1]; X2 = O=C(CSCC(=O)*)NCCN1C(=O)CSC1=O; Palmitoyl = CCCCCCCCCCCCCCCC(=O)*; Aib = CC(C)(N)C(=O)O

Experiments:
[1] = target: T1, GIP-R (Homo sapiens, UniProt P48546); experiment: HitHunter cAMP assay (GIP-R); type: cell-based; settings: cAMP; for Emax: read-out: (Emax) GIP-R
T1 sequence (P48546 22-466): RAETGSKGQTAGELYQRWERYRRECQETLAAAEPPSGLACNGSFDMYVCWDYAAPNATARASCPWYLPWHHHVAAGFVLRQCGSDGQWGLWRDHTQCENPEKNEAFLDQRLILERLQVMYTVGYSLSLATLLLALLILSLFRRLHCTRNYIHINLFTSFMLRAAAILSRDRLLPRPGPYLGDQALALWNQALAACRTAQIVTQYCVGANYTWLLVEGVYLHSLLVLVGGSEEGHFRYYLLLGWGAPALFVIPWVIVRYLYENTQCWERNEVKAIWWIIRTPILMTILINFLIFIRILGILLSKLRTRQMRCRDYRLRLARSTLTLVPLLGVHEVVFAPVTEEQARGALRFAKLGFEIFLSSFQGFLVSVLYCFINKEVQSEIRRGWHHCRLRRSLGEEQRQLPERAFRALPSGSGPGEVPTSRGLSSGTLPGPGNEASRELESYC
Method in brief: (§1)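 Duplicate 22-point, 2-fold agonist titrations applied to receptor-expressing suspension cells in IBMX-containing HBSS; 30 min RT stimulation. Read: luminescent cAMP immunocompetition after O/N dark incubation.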

[2] = target: GLP-1R (Homo sapiens, UniProt P43220); experiment: HitHunter cAMP assay (GLP-1R); type: cell-based; settings: cAMP; for Emax: read-out: (Emax) GLP-1R
Method in brief: as §1

[3] = Table 3, read-out: EC50 GLP-1R/nM
[4] = Table 3A, read-out: EC50 GLP-1R/nM
[5] = Table 3A, read-out: EC50 GIP-R/nM

Chain of GLP-1R (P43220 24-463): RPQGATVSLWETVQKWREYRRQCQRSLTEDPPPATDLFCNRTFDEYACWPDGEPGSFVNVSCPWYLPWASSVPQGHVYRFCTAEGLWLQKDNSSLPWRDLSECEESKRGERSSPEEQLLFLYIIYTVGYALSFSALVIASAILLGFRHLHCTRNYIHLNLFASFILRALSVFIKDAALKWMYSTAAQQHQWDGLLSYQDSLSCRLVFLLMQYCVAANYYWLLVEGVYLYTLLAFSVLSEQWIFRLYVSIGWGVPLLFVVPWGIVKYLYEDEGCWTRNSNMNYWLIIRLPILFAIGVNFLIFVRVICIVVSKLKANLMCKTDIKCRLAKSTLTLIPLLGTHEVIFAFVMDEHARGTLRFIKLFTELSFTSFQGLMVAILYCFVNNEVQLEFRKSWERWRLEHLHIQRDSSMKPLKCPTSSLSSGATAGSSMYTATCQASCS

Structure (SMILES) | Emax at 1 µM ([1]; read-out: (Emax) GIP-R at 1 μM, Table 3, at 1 μM) | Emax ([2]; Table 3) | EC50 [2, 3] | Emax ([2]; Table 3A) | EC50 [2, 4] | Emax ([1]; Table 3A) | EC50 [1, 5] | EC50 ([1]; EC50 GIP-R/nM, Table 3A) | EC50 ([2]; EC50 GLP-1R/nM, Table 3A) | Emax ([1]; Table 3) | EC50 ([1]; Table 3, read-out: EC50 GIP-R/nM) | EC50 ([1]; EC50 GIP-R/nM, Table 3) | EC50 ([2]; EC50 GLP-1R/nM, Table 3)
CCCCCCCCCCCCCCCC(=O)N[C@@H](CCC(=O)NCCCC[C@H](NC(=O)[C@H](CO)NC(=O)[C@@H]1CCCN1C(=O)[C@@H]1CCCN1C(=O)[C@@H]1CCCN1C(=O)[C@H](C)NC(=O)CNC(=O)[C@H](CO)NC(=O)[C@H](CO)NC(=O)[C@@H]1CCCN1C(=O)CNC(=O)CNC(=O)[C@H](C)NC(=O)[C@H](CC(C)C)NC(=O)[C@H](CC(C)C)NC(=O)[C@H](Cc1c[nH]c2ccccc12)NC(=O)[C@H](CC(N)=O)NC(=O)[C@@H](NC(=O)[C@H](Cc1ccccc1)NC(=O)[C@H](CCC(=O)O)NC(=O)C(C)(C)NC(=O)[C@H](C)NC(=O)[C@H](C)NC(=O)[C@H](CCC(N)=O)NC(=O)[C@H](CCCCN)NC(=O)[C@H](CC(=O)O)NC(=O)[C@H](CC(C)C)NC(=O)[C@H](Cc1ccc(O)cc1)NC(=O)[C@@H](NC(=O)[C@H](CO)NC(=O)[C@H](Cc1ccc(O)cc1)NC(=O)[C@H](CC(=O)O)NC(=O)[C@H](CO)NC(=O)[C@@H](NC(=O)[C@H](Cc1ccccc1)NC(=O)[C@@H](NC(=O)CNC(=O)[C@H](CCC(=O)O)NC(=O)CSCC(=O)NCCC1=CCCC1)[C@@H](C)O)[C@@H](C)O)[C@@H](C)CC)C(C)C)C(N)=O)C(=O)O [Compound 54] | 6% | 107% | < 0.1 nM | 107% | < 0.1 nM | – | – | – | – | – | – | – | –
CCCCCCCCCCCCCCCC(=O)N[C@@H](CCC(=O)NCCCC[C@H](NC(=O)CNC(=O)[C@H](CCCNC(=N)N)NC(=O)CNC(=O)[C@H](C)NC(=O)[C@H](CC(C)C)NC(=O)[C@H](CC(C)C)NC(=O)[C@H](Cc1c[nH]c2ccccc12)NC(=O)[C@H](CC(N)=O)NC(=O)[C@@H](NC(=O)[C@H](Cc1ccccc1)NC(=O)[C@H](CCC(=O)O)NC(=O)C(C)(C)NC(=O)[C@H](C)NC(=O)[C@H](C)NC(=O)[C@H](CCC(N)=O)NC(=O)[C@H](CCCCN)NC(=O)[C@H](CC(=O)O)NC(=O)[C@H](CC(C)C)NC(=O)[C@H](Cc1ccc(O)cc1)NC(=O)[C@@H](NC(=O)[C@H](CO)NC(=O)[C@H](Cc1ccc(O)cc1)NC(=O)[C@H](CC(=O)O)NC(=O)[C@H](CO)NC(=O)[C@@H](NC(=O)[C@H](Cc1ccccc1)NC(=O)[C@@H](NC(=O)CNC(=O)[C@H](CCC(=O)O)NC(=O)CSCC(=O)NCCN1C(=O)CSC1=O)[C@@H](C)O)[C@@H](C)O)[C@@H](C)CC)C(C)C)C(=O)NCC(=O)N1CCC[C@H]1C(=O)N[C@@H](CO)C(=O)N[C@@H](CO)C(=O)NCC(=O)N[C@@H](C)C(=O)N1CCC[C@H]1C(=O)N1CCC[C@H]1C(=O)N1CCC[C@H]1C(=O)N[C@@H](CO)C(N)=O)C(=O)O [Compound 198] (X2-EGTFTSDYSIYLDKQAA[Aib]EFVNWLLAGRGK([γGlu-Palmitoyl])GPSSGAPPPS-NH2) | – | – | – | 95% | 10 to 100 nM | 81% | 10 to 100 nM | – | – | – | – | – | –
CCCCCCCCCCCCCCCC(=O)N[C@@H](CCC(=O)NCCCC[C@H](NC(=O)[C@H](CO)NC(=O)[C@@H]1CCCN1C(=O)[C@@H]1CCCN1C(=O)[C@@H]1CCCN1C(=O)[C@H](C)NC(=O)CNC(=O)[C@H](CO)NC(=O)[C@H](CO)NC(=O)[C@@H]1CCCN1C(=O)CNC(=O)CNC(=O)[C@H](C)NC(=O)[C@H](CC(C)C)NC(=O)[C@H](CC(C)C)NC(=O)[C@H](Cc1c[nH]c2ccccc12)NC(=O)[C@H](CC(N)=O)NC(=O)[C@@H](NC(=O)[C@H](Cc1ccccc1)NC(=O)[C@H](CCC(=O)O)NC(=O)C(C)(C)NC(=O)[C@H](C)NC(=O)[C@H](C)NC(=O)[C@H](CCC(N)=O)NC(=O)[C@H](CCCCN)NC(=O)[C@H](CC(=O)O)NC(=O)[C@H](CC(C)C)NC(=O)[C@H](Cc1ccc(O)cc1)NC(=O)[C@@H](NC(=O)[C@H](CO)NC(=O)[C@H](Cc1ccc(O)cc1)NC(=O)[C@H](CC(=O)O)NC(=O)[C@H](CO)NC(=O)[C@@H](NC(=O)[C@H](Cc1ccccc1)NC(=O)[C@@H](NC(=O)CNC(=O)[C@H](CCC(=O)O)NC(=O)CSCC(=O)NCCN1C(=O)[C@H]2CC[C@@H]1C2)[C@@H](C)O)[C@@H](C)O)[C@@H](C)CC)C(C)C)C(N)=O)C(=O)O [Compound 289] | – | – | – | 100% | – | 20% | – | 10 to 100 nM | < 0.1 nM | – | – | – | –
CCCCCCCCCCCCCCCC(=O)N[C@@H](CCC(=O)NCCCC[C@H](NC(=O)[C@H](CO)NC(=O)[C@@H]1CCCN1C(=O)[C@@H]1CCCN1C(=O)[C@@H]1CCCN1C(=O)[C@H](C)NC(=O)CNC(=O)[C@H](CO)NC(=O)[C@H](CO)NC(=O)[C@@H]1CCCN1C(=O)CNC(=O)CNC(=O)[C@H](C)NC(=O)[C@H](CC(C)C)NC(=O)[C@H](CC(C)C)NC(=O)[C@H](Cc1c[nH]c2ccccc12)NC(=O)[C@H](CC(N)=O)NC(=O)[C@@H](NC(=O)[C@H](Cc1ccccc1)NC(=O)[C@H](CCC(=O)O)NC(=O)C(C)(C)NC(=O)[C@H](C)NC(=O)[C@H](C)NC(=O)[C@H](CCC(N)=O)NC(=O)[C@H](CCCCN)NC(=O)[C@H](CC(=O)O)NC(=O)[C@H](CC(C)C)NC(=O)[C@H](Cc1ccc(O)cc1)NC(=O)[C@@H](NC(=O)[C@H](CO)NC(=O)[C@H](Cc1ccc(O)cc1)NC(=O)[C@H](CC(=O)O)NC(=O)[C@H](CO)NC(=O)[C@@H](NC(=O)[C@H](Cc1ccccc1)NC(=O)[C@@H](NC(=O)CNC(=O)[C@@H](CCC(=O)O)NC(=O)CSCC(=O)NCCN1C(=O)CSC1=O)[C@@H](C)O)[C@@H](C)O)[C@@H](C)CC)C(C)C)C(N)=O)C(=O)O [Compound 53] | – | 99% | 1 to 10 nM | 99% | 1 to 10 nM | 62% | 1 to 10 nM | – | – | 62% | 1 to 10 nM | – | –
CCCCCCCCCCCCCCCC(=O)N[C@@H](CCC(=O)NCCCC[C@H](NC(=O)[C@H](CO)NC(=O)[C@@H]1CCCN1C(=O)[C@@H]1CCCN1C(=O)[C@@H]1CCCN1C(=O)[C@H](C)NC(=O)CNC(=O)[C@H](CO)NC(=O)[C@H](CO)NC(=O)[C@@H]1CCCN1C(=O)CNC(=O)CNC(=O)[C@H](C)NC(=O)[C@H](CC(C)C)NC(=O)[C@H](CC(C)C)NC(=O)[C@H](Cc1c[nH]c2ccccc12)NC(=O)[C@H](CC(N)=O)NC(=O)[C@@H](NC(=O)[C@H](Cc1ccccc1)NC(=O)[C@H](CCC(=O)O)NC(=O)C(C)(C)NC(=O)[C@H](C)NC(=O)[C@H](C)NC(=O)[C@H](CCC(N)=O)NC(=O)[C@H](CCCCN)NC(=O)[C@H](CC(=O)O)NC(=O)[C@H](CC(C)C)NC(=O)[C@H](Cc1ccc(O)cc1)NC(=O)[C@@H](NC(=O)[C@H](CO)NC(=O)[C@H](Cc1ccc(O)cc1)NC(=O)[C@H](CC(=O)O)NC(=O)[C@H](CO)NC(=O)[C@@H](NC(=O)[C@H](Cc1ccccc1)NC(=O)[C@@H](NC(=O)CNC(=O)[C@H](CCc1nn[nH]n1)NC(=O)CSCC(=O)NCCN1CCCCC1=O)[C@@H](C)O)[C@@H](C)O)[C@@H](C)CC)C(C)C)C(N)=O)C(=O)O [Compound 221] | – | – | – | 95% | 1 to 10 nM | 68% | 1 to 10 nM | – | – | – | – | – | –
CC[C@H](C)[C@H](NC(=O)[C@H](CO)NC(=O)[C@H](Cc1ccc(O)cc1)NC(=O)[C@H](CC(=O)O)NC(=O)[C@H](CO)NC(=O)[C@@H](NC(=O)[C@H](Cc1ccccc1)NC(=O)[C@@H](NC(=O)CNC(=O)[C@H](CCC(=O)O)NC(=O)CSCC(=O)NCCN1C(=O)[C@H]2C[C@H]2C1=O)[C@@H](C)O)[C@@H](C)O)C(=O)N[C@@H](Cc1ccc(O)cc1)C(=O)N[C@@H](CC(C)C)C(=O)N[C@@H](CC(=O)O)C(=O)N[C@@H](CCCCN)C(=O)N[C@@H](CCC(N)=O)C(=O)N[C@@H](C)C(=O)N[C@@H](C)C(=O)NC(C)(C)C(=O)N[C@@H](CCC(=O)O)C(=O)N[C@@H](Cc1ccccc1)C(=O)N[C@H](C(=O)N[C@@H](CC(N)=O)C(=O)N[C@@H](Cc1c[nH]c2ccccc12)C(=O)N[C@@H](CC(C)C)C(=O)N[C@@H](CC(C)C)C(=O)N[C@@H](C)C(=O)NCC(=O)NCC(=O)N1CCC[C@H]1C(=O)N[C@@H](CO)C(=O)N[C@@H](CO)C(=O)NCC(=O)N[C@@H](C)C(=O)N1CCC[C@H]1C(=O)N1CCC[C@H]1C(=O)N1CCC[C@H]1C(=O)N[C@@H](CO)C(=O)N[C@@H](CCCCN)C(N)=O)C(C)C [Compound 109] | – | 101% | – | 101% | – | 36% | – | 10 to 100 nM | 1 to 10 nM | 36% | – | 10 to 100 nM | 1 to 10 nM
